Source: patent publication US20030045582A1, “Method for treating hyperglycemia” (Alteon, Inc., priority 2000, published 2003)

Key:
[1] = tested on: patients suffering from Type I diabetes with overt diabetic nephropathy; experiment: Multicenter, randomized, double-blind, placebo-controlled study: time to doubling of baseline serum creatinine; assay type: in vivo, human
Experimental: (§1) Renal function was measured every three months using serum creatinine levels, and creatinine clearance rates. In addition, the glomerular filtration rate was measured at entry and every six months. Study participants were treated at one of two dosage levels, (150 mg and 300 mg B.I.D.).
Time to doubling of baseline serum creatinine was measured. Study participants were also treated with standard measures for blood pressure control, and diabetes management, including insulin treatment, diet, and exercise. Serum creatinine levels were made at baseline and randomization visits, at the end of weeks 1-6, the end of month 2, the end of month 3, and then every 3 months for the remainder of the study. “Baseline serum creatinine” was the mean of the levels at the baseline and randomization visits. If the level at any subsequent visit was at least two times the baseline, and was confirmed by a second measurement, the patient was considered to have experienced a doubling of baseline serum creatinine. Serum creatinine levels were determined by a clinical laboratory (SciCor Inc., 8211 SciCor Drive, Indianapolis, Ind. 46214-2985).

[2] = tested on: patients suffering from Type I diabetes with overt diabetic nephropathy; experiment: Same clinical study: 24 hour urinary protein excretion; assay type: in vivo, human
Experimental: as §1
(FIG. 1). The reduction was generally first observed at the first post-randomization evaluation (at three months) and increased in magnitude over the duration of the study. […] (FIG. 2).

[3] = tested on: patients suffering from Type I diabetes with overt diabetic nephropathy; experiment: Same clinical study: progression of diabetic retinopathy, three or more steps in ETDRS scale; assay type: in vivo, human
diabetic rats = conditions: cited from earlier work
kidney = conditions: in vivo; cited from earlier work
[4] = tested on: streptozotocin-diabetic rat; conditions: streptozotocin-diabetic rat model; cited from earlier work
[5] = tested on: red blood cell (RBC) deformability; conditions: in vivo; cited from earlier work

N=C(N)NN [Pimagedine, aminoguanidine]
Patients with adjudicated doubling of serum creatinine (%) ([1]; Baseline serum creatinine less than 1.5 mg/dL, Combined): (10%) | Odds ratio, doubling of serum creatinine ([1]; Baseline serum creatinine less than 1.5 mg/dL, Combined versus placebo): 0.59 | Patients with adjudicated doubling of serum creatinine (%) ([1]; Baseline serum creatinine less than 1.5 mg/dL, High Dose): (10%) | Odds ratio, doubling of serum creatinine ([1]; Baseline serum creatinine less than 1.5 mg/dL, High Dose versus placebo): 0.52 | Patients with adjudicated doubling of serum creatinine (%) ([1]; Baseline serum creatinine less than 1.5 mg/dL, Low Dose): (11%) | Odds ratio, doubling of serum creatinine ([1]; Baseline serum creatinine less than 1.5 mg/dL, Low Dose versus placebo): 0.64 | Patients with adjudicated doubling of serum creatinine (%) ([1]; Combined doses): (20%) | Odds ratio, doubling of serum creatinine ([1]; Combined versus placebo): 0.73 | Patients with adjudicated doubling of serum creatinine (%) ([1]; High Dose (300 mg B.I.D.), listed as pimagendine): 20% | Odds ratio, doubling of serum creatinine ([1]; High Dose versus placebo): 0.73 | Patients with adjudicated doubling of serum creatinine (%) ([1]; Low Dose (150 mg B.I.D.)): (20%) | Patients with adjudicated doubling of serum creatinine (%) ([1]; Low Dose (150 mg B.I.D.), listed as pimagendine): 20% | Odds ratio, doubling of serum creatinine ([1]; Low Dose versus placebo): 0.72 | Reduction in the risk of doubling serum creatinine ([1]; all patients, versus placebo): 29% | Patients with adjudicated doubling of serum creatinine (%) ([1]; high dose (300 mg B.I.D.)): (20%) | Reduction of the risk of doubling serum creatinine ([1]; patients with a baseline serum creatinine of less than 1.5 mg/dL): 63% | 24 hour urinary protein excretion ([2]; high dose (300 mg B.I.D.)): statistically significant reductions | 24 hour urinary protein excretion ([2]; low dose (150 mg B.I.D.)): statistically significant reductions | Effect on proteinuria ([2]; patients with a baseline serum creatinine of less than 1.5 mg/dL compared with whole population): greater effect | % of patients with a ≧ 3 step progression in ETDRS score ([3]; Combined): (10%) | Logistic regression model odds ratio, ≧ 3 step retinopathy progression ([3]; Combined versus placebo): 0.53 | % of patients with a ≧ 3 step progression in ETDRS score ([3]; High Dose): (8%) | Logistic regression model odds ratio, ≧ 3 step retinopathy progression ([3]; High Dose versus placebo): 0.68 | % of patients with a ≧ 3 step progression in ETDRS score ([3]; Low Dose): (11%) | Logistic regression model odds ratio, ≧ 3 step retinopathy progression ([3]; Low Dose versus placebo): 0.58 | Incidence of progression of retinopathy from baseline to endpoint ([3]; progression of three or more steps in ETDRS scale): decreased | Aortic wall protein cross-linking (diabetic rats): diminishes | Immunoglobulin trapping in the kidney (kidney): reduction | Increased glomerular basement membrane thickness [4]: prevented | Diabetes-induced changes in the deformability of red blood cells [5]: prevent
